Results on 6 compounds are retold here after DBAASP.

≈ marks a conversion by molar mass, not a printed value. Where only a bound is given, the exact number is not on record here.

Among the test systems are Klebsiella pneumoniae; Escherichia coli K99; Escherichia coli K88; Acinetobacter baumannii; Escherichia coli; Escherichia coli UB1005; Pseudomonas aeruginosa.
Common to all, as to test: ≥ marks a high value that may be exact or a test limit, other limits are often not marked, values filed in µg/mL are converted to µM
Experiment [1] relates to Pseudomonas aeruginosa ATCC 27853.
The subject of experiment [2] is Escherichia coli ATCC 25922.
Experiment [3] has as its system Pseudomonas aeruginosa CICC 21630.
The test system of experiment [4] is Pseudomonas aeruginosa CICC 21625.
Experiment [5] deals with Salmonella enterica subsp. enterica serovar Typhimurium C77-31.
Experiment [6] has as its system Salmonella enterica subsp. enterica serovar Pullorum C79-13.
The subject of experiment [7] is Pseudomonas aeruginosa PAO1.
For experiment [8], the system named is Salmonella enterica subsp. enterica serovar Typhimurium ATCC 14028.
Experiment [9] concerns Klebsiella pneumoniae ATCC BAA-2146.
Experiment [10] has as its system Acinetobacter baumannii ATCC 19606.
Experiment [11] concerns Candida albicans ATCC 90028.
Experiment [12] has as its system Staphylococcus aureus ATCC 43300.
For experiment [13], the system named is Klebsiella pneumoniae ATCC 13883.
Experiment [14] deals with Cryptococcus neoformans ATCC 208821.
Experiment [15] has as its system Bacillus subtilis ATCC 6051.
The test system of experiment [16] is Klebsiella pneumoniae ATCC 700603.

For the compound `CC[C@H](C)[C@H](N)C(=O)N[C@@H](CCCN=C(N)N)C(=O)N1CCC[C@H]1C(=O)N[C@H](C(=O)N[C@H](C(=O)N[C@@H](CCCN=C(N)N)C(=O)N1CCC[C@H]1C(=O)N[C@H](C(=O)N[C@H](C(=O)N[C@@H](CCCN=C(N)N)C(=O)N1CCC[C@H]1C(=O)N[C@H](C(=O)N[C@H](C(=O)N[C@@H](CCCN=C(N)N)C(=O)N1CCC[C@H]1C(=O)N[C@H](C(=O)N[C@H](C(=O)N[C@@H](CCCN=C(N)N)C(=O)N1CCC[C@H]1C(=O)N[C@H](C(N)=O)[C@@H](C)CC)[C@@H](C)CC)[C@@H](C)CC)[C@@H](C)CC)[C@@H](C)CC)[C@@H](C)CC)[C@@H](C)CC)[C@@H](C)CC)[C@@H](C)CC` [IRPIIRPIIRPIIRPIIRPI], the MIC came to 8 µM (≈ 19.3 µg/mL) in the experiment on Klebsiella pneumoniae; 4 µM (≈ 9.66 µg/mL) in the experiment on Escherichia coli K99; 1 µM (≈ 2.42 µg/mL) in the experiment on Escherichia coli K88; 4 µM (≈ 9.66 µg/mL) against Acinetobacter baumannii; 8 µM (≈ 19.3 µg/mL) with Escherichia coli; 32 µM (≈ 77.3 µg/mL) in experiment [1]. The minimal inhibitory concentration (MIC) in [2] was 8 µM (≈ 19.3 µg/mL); against Escherichia coli UB1005 it was 4 µM (≈ 9.66 µg/mL); in [3], at least 64 µM; in experiment [4] it was at least 64 µM; in experiment [5] it was 16 µM (≈ 38.6 µg/mL); in [6] it was 8 µM (≈ 19.3 µg/mL). The minimal inhibitory concentration (MIC) in [7] is 64 µM (≈ 155 µg/mL); in [8], 8 µM (≈ 19.3 µg/mL); in the experiment on Pseudomonas aeruginosa, over 64 µM.
Regarding `CC[C@H](C)[C@H](N)C(=O)N[C@@H](CCCCN)C(=O)N1CCC[C@H]1C(=O)N[C@H](C(=O)N[C@H](C(=O)N[C@@H](CCCCN)C(=O)N1CCC[C@H]1C(=O)N[C@H](C(=O)N[C@H](C(=O)N[C@@H](CCCCN)C(=O)N1CCC[C@H]1C(=O)N[C@H](C(=O)N[C@H](C(=O)N[C@@H](CCCCN)C(=O)N1CCC[C@H]1C(=O)N[C@H](C(=O)N[C@H](C(=O)N[C@@H](CCCCN)C(=O)N1CCC[C@H]1C(=O)N[C@H](C(N)=O)[C@@H](C)CC)[C@@H](C)CC)[C@@H](C)CC)[C@@H](C)CC)[C@@H](C)CC)[C@@H](C)CC)[C@@H](C)CC)[C@@H](C)CC)[C@@H](C)CC` [IKPIIKPIIKPIIKPIIKPI], the MIC with Klebsiella pneumoniae was over 64 µM; in the experiment on Escherichia coli K99 it was at least 64 µM; against Escherichia coli K88, at least 64 µM; against Acinetobacter baumannii it was at least 64 µM; with Escherichia coli it was over 64 µM; in [1], over 64 µM. In addition, the MIC in experiment [2] was over 64 µM; against Escherichia coli UB1005, at least 64 µM; in experiment [3] it was at least 64 µM; in [4], at least 64 µM; in [5] it was at least 64 µM; in [6] it was at least 64 µM. In addition, the minimum inhibitory concentration (MIC) (in experiment [7]; in experiment [8]; in the experiment with Pseudomonas aeruginosa) was over 64 µM throughout.
On to `CC[C@H](C)[C@@H]1NC(=O)CNC(=O)[C@H](CCCN=C(N)N)NC(=O)[C@H](Cc2ccc(O)cc2)NC(=O)[C@@H]2CSSC[C@H](NC1=O)C(=O)N[C@@H](Cc1ccc(O)cc1)C(=O)N[C@@H](CCCN=C(N)N)C(=O)N[C@@H](CCCN=C(N)N)C(=O)N[C@H](C(=O)N[C@@H](CCCN=C(N)N)C(=O)O)CSSC[C@H](NC(=O)[C@H](Cc1c[nH]c3ccccc13)NC(=O)[C@@H](N)CCCCN)C(=O)NCC(=O)N[C@@H](CCCN=C(N)N)C(=O)N[C@@H](C(C)C)C(=O)N2` [KWCGRVCYRGICYRRCR], for which the minimal inhibitory concentration (MIC) with Klebsiella pneumoniae was over 7.34 µM; in experiment [9], 0.918 µM (≈ 2 µg/mL); in experiment [10], 0.23 µM (≈ 0.499 µg/mL); with Acinetobacter baumannii, 0.918 µM (≈ 2 µg/mL); in experiment [11] it was 3.67 µM (≈ 7.99 µg/mL); in experiment [12] it was 7.34 µM (≈ 16 µg/mL). Further, the MIC in [13] was 0.918 µM (≈ 2 µg/mL); in experiment [1] it was 0.459 µM (≈ 0.998 µg/mL); in experiment [14], 0.918 µM (≈ 2 µg/mL); in [15], 0.23 µM (≈ 0.499 µg/mL); in experiment [2] it was 0.115 µM (≈ 0.25 µg/mL); in experiment [16], 0.459 µM (≈ 0.998 µg/mL). This compound also registered an MIC against Pseudomonas aeruginosa of 7.34 µM (≈ 16 µg/mL).
With `CC[C@H](C)[C@@H]1NC(=O)CNC(=O)[C@H](CCCN=C(N)N)NC(=O)[C@H](Cc2ccc(O)cc2)NC(=O)[C@@H]2CSSC[C@H](NC1=O)C(=O)N[C@@H](Cc1ccc(O)cc1)C(=O)N[C@@H](CCCN=C(N)N)C(=O)N[C@@H](CCCN=C(N)N)C(=O)N[C@H](C(=O)N[C@@H](CCCN=C(N)N)C(=O)O)CSSC[C@H](NC(=O)[C@H](C)NC(=O)[C@@H](N)CCCCN)C(=O)N[C@@H](Cc1ccccc1)C(=O)N[C@@H](CCCN=C(N)N)C(=O)N[C@@H](C(C)C)C(=O)N2` [KACFRVCYRGICYRRCR], the MIC is over 7.43 µM in the experiment with Klebsiella pneumoniae; 0.464 µM (≈ 0.998 µg/mL) in experiment [9]; 0.232 µM (≈ 0.499 µg/mL) in experiment [10]; 0.232 µM (≈ 0.499 µg/mL) against Acinetobacter baumannii; 3.71 µM (≈ 7.99 µg/mL) in [11]; 3.71 µM (≈ 7.99 µg/mL) in experiment [12]. For the same compound, the MIC in experiment [13] came to 0.232 µM (≈ 0.499 µg/mL); in [1], 0.232 µM (≈ 0.499 µg/mL); in experiment [14] it was 0.232 µM (≈ 0.499 µg/mL); in [15], 0.232 µM (≈ 0.499 µg/mL); in [2] it was 0.116 µM (≈ 0.25 µg/mL); in experiment [16], 0.464 µM (≈ 0.998 µg/mL). Also, the minimum inhibitory concentration (MIC) in the experiment with Pseudomonas aeruginosa came out at 1.86 µM (≈ 3.99 µg/mL).
On to `CC(C)[C@@H]1NC(=O)[C@H](CCCN=C(N)N)NC(=O)[C@H](C)NC(=O)[C@@H](NC(=O)[C@H](Cc2c[nH]c3ccccc23)NC(=O)[C@@H](N)CCCCN)CSSC[C@@H](C(=O)N[C@@H](CCCN=C(N)N)C(=O)O)NC(=O)[C@H](CCCN=C(N)N)NC(=O)[C@H](CCCN=C(N)N)NC(=O)[C@H](Cc2ccc(O)cc2)NC(=O)[C@@H]2CSSC[C@H](NC1=O)C(=O)N[C@@H](C)C(=O)N[C@@H](CCCN=C(N)N)C(=O)NCC(=O)N[C@@H](C)C(=O)N2` [KWCARVCARGACYRRCR], for which the minimal inhibitory concentration (MIC) in the experiment with Klebsiella pneumoniae is over 7.77 µM; in experiment [9] it was 7.77 µM (≈ 16 µg/mL); in [10], over 7.77 µM; in the experiment with Acinetobacter baumannii, 7.77 µM (≈ 16 µg/mL); in [11], 7.77 µM (≈ 16 µg/mL); in experiment [12], over 7.77 µM. Besides, the minimal inhibitory concentration (MIC) in experiment [13] was 7.77 µM (≈ 16 µg/mL); in [1], over 7.77 µM; in experiment [14], 7.77 µM (≈ 16 µg/mL); in experiment [15], 7.77 µM (≈ 16 µg/mL); in experiment [2], 3.89 µM (≈ 7.98 µg/mL); in experiment [16], over 7.77 µM. The compound further displayed an MIC with Pseudomonas aeruginosa of over 7.77 µM.
For `CC[C@H](C)[C@@H]1NC(=O)CNC(=O)[C@H](CCCN=C(N)N)NC(=O)[C@H](Cc2ccc(O)cc2)NC(=O)[C@@H]2CSSC[C@H](NC1=O)C(=O)N[C@@H](Cc1ccc(O)cc1)C(=O)N[C@@H](CCCN=C(N)N)C(=O)N[C@@H](CCCN=C(N)N)C(=O)N[C@H](C(=O)N[C@@H](CCCN=C(N)N)C(=O)O)CSSC[C@H](NC(=O)[C@H](Cc1c[nH]c3ccccc13)NC(=O)[C@@H](N)CCCCN)C(=O)N[C@@H](C)C(=O)N[C@@H](CCCN=C(N)N)C(=O)N[C@@H](C(C)C)C(=O)N2` [KWCARVCYRGICYRRCR], the MIC in the experiment with Klebsiella pneumoniae is 7.3 µM (≈ 16 µg/mL); in [9], 0.228 µM (≈ 0.499 µg/mL); in experiment [10], 0.228 µM (≈ 0.499 µg/mL); in the experiment with Acinetobacter baumannii it was 0.228 µM (≈ 0.499 µg/mL); in experiment [11], 3.65 µM (≈ 7.99 µg/mL); in experiment [12], 1.82 µM (≈ 3.99 µg/mL). The minimum inhibitory concentration (MIC) in [13] stood at 0.228 µM (≈ 0.499 µg/mL); in experiment [1], 0.228 µM (≈ 0.499 µg/mL); in [14], 0.228 µM (≈ 0.499 µg/mL); in [15], 0.114 µM (≈ 0.25 µg/mL); in experiment [2], 0.057 µM (≈ 0.125 µg/mL); in experiment [16], 0.228 µM (≈ 0.499 µg/mL). The compound further registered an MIC in the experiment with Pseudomonas aeruginosa of 0.912 µM (≈ 2 µg/mL).
